Source: the Kinase Knowledgebase extract (Sharma et al. 2016)
pIC50: −log10 of the molar value.

Legend:
Experiment in all cases: Enzyme Assay
[1] = target: PIK3CG (human) (UniProt P48736)
[2] = target: PIK3CB (Human) (UniProt P42338)
[3] = target: PIK3CD (Human) (UniProt O00329)
PIK3CD (Human), sequence (O00329 whole entry, looked up): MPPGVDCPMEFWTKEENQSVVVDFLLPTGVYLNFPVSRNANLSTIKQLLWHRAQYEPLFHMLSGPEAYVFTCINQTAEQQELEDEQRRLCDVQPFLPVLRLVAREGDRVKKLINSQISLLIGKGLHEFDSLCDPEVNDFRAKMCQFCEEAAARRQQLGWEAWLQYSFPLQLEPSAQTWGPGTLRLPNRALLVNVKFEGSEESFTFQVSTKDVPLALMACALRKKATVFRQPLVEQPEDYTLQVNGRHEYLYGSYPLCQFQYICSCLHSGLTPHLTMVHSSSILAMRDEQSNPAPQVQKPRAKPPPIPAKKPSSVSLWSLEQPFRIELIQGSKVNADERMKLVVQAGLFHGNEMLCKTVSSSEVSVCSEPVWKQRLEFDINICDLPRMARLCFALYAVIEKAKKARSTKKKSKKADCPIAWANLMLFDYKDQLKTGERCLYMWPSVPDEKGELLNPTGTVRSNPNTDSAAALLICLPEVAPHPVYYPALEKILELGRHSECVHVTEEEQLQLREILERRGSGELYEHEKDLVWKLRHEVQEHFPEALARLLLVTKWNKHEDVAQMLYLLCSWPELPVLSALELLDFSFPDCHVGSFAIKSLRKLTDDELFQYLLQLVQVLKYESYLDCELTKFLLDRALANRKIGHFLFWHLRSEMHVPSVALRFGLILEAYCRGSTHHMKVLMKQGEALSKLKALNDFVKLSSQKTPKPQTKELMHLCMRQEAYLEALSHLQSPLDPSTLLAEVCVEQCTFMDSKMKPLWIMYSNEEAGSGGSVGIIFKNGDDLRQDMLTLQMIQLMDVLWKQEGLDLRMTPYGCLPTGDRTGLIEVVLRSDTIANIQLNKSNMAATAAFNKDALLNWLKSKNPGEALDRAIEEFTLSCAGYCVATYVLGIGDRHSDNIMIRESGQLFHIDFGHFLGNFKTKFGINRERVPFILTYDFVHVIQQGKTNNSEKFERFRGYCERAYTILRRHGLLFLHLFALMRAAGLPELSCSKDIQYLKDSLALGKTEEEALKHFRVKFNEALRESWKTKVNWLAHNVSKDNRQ

PIK3CG (human), sequence (P48736 whole entry, looked up): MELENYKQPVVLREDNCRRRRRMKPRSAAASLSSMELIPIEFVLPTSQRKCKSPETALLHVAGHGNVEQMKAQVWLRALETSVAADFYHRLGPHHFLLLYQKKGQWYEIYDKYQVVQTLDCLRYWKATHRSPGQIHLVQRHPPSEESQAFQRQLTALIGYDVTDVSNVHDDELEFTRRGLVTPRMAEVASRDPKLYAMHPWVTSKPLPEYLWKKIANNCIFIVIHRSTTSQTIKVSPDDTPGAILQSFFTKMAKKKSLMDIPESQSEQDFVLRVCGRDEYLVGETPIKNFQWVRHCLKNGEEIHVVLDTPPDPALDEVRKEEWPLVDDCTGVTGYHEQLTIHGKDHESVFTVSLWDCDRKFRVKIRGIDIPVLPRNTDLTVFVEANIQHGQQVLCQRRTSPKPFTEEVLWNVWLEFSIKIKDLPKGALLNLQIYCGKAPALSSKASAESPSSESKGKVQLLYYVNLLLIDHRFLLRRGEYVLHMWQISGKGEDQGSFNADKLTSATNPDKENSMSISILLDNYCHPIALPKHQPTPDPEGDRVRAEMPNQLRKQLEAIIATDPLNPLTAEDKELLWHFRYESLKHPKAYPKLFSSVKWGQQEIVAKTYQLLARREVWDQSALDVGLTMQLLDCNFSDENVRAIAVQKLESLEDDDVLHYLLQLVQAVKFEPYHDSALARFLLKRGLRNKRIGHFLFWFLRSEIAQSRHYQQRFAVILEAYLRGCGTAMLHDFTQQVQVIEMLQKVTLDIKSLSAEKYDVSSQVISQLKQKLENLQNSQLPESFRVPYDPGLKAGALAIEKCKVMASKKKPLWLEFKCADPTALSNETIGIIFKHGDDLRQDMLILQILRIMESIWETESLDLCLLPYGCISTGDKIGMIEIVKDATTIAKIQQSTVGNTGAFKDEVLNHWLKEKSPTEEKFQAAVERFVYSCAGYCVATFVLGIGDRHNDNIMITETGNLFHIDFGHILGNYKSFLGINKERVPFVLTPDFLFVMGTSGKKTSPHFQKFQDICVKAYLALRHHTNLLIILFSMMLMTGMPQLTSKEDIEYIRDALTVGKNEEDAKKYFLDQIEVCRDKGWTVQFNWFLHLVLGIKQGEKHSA
PIK3CB (Human), sequence (P42338 whole entry, looked up): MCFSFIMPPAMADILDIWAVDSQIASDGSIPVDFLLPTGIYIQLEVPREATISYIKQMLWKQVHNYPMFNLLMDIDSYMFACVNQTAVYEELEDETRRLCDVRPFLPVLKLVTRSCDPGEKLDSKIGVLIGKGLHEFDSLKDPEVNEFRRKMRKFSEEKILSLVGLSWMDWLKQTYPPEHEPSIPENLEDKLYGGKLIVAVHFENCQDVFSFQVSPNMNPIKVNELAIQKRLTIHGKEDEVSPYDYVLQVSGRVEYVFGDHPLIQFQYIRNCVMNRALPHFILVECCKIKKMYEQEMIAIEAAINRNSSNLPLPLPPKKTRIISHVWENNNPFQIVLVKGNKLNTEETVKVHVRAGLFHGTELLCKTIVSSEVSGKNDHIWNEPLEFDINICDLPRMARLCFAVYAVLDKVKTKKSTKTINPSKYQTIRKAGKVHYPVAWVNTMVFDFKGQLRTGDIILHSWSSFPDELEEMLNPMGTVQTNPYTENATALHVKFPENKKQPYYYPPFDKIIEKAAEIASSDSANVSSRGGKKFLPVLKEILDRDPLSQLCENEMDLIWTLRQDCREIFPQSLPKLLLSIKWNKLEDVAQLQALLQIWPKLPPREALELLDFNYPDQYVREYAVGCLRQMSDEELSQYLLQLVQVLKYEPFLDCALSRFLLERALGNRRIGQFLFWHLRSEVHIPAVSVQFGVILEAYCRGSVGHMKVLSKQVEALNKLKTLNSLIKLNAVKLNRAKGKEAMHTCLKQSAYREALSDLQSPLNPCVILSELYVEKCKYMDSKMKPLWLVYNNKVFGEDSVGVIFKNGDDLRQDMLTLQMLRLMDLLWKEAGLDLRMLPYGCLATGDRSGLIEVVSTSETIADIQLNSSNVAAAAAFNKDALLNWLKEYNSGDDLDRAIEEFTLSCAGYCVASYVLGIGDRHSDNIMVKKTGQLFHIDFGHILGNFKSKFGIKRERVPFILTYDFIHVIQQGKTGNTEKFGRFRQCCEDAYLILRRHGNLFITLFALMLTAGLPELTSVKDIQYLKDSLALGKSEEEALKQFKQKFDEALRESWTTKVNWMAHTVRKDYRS

pIC50 [1]	pIC50 [2]	pIC50 [3]	SMILES
	< 5.00		C[C@H](Nc1nc(N)nc(C(F)F)c1Cl)c1nc2c(F)c(F)ccc2c(=O)n1-c1cc[nH]n1
< 5.00			Nc1nc(N)c(Cl)c(N[C@H](c2nc3c(Cl)cc(F)cc3c(=O)n2-c2cc[nH]n2)C2CC2)n1
5.03		6.85	C[C@H](Nc1nc(N)nc(N)c1C#N)c1nc2ccc(Cl)cc2c(=O)n1-c1cc[nH]n1
	< 5.00		C[C@H](Nc1nc(N)nc(C(F)F)c1Cl)c1nc2cc(F)cc(F)c2c(=O)n1-c1cc[nH]n1
< 5.00	8.40	8.05	C[C@H](Nc1nc(N)nc(N)c1C#N)c1nc2c(C(F)F)cccc2c(=O)n1-c1cc[nH]n1

More lines, now with the values behind:

SMILES	pIC50 [1]	pIC50 [2]	pIC50 [3]
Cc1c[nH]nc1-n1c([C@@H](NC2=NC(N)=NC3=NN=C(Br)C32)C2CC2)nc2cccc(Cl)c2c1=O (stereo partly drawn)	< 5.00		
Nc1nc(N)c(Cl)c(N[C@H](c2nc3cccc(Cl)c3c(=O)n2-c2cc[nH]n2)C2CCC2)n1	< 5.00		
CC(C)Cc1cc(-n2c([C@H](C)Nc3ncnc(N)c3C#N)nc3cccc(Cl)c3c2=O)n[nH]1	< 5.00		
CC(C)[C@H](Nc1nc(N)nc(N)c1Cl)c1nc2cccc(Cl)c2c(=O)n1-c1cc[nH]n1	5.00		
CC[C@H](Nc1ncnc2[nH]cc(F)c12)c1nc2c(Cl)ccc(Cl)c2c(=O)n1-c1cc[nH]n1			8.52
